Measurements: the supplement of paper PMC11061612

Key:
Assay in all cases: Bliss excess, mean over the matrix (fraction); higher = more synergy
[1] = tested on: D-283MED (Other Solid Carcinomas)
Method in brief: (§1)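 Cell lines grown in DMEM/F12 or RPMI with 10% FBS were plated in 1536-well plates and held 24 hours at 37°C, 5% CO2 before 72 hours of exposure to two-drug dose matrices, with DMSO typically at 0.2%. CellTiter-Glo 2.0 luminescence gave viability, which was converted to inhibition. Vehicle wells were set to 0 and blank wells to 1. Combination Emax is the second-highest inhibition in the matrix, and Bliss excess is the observed combination effect minus the expected EA + EB − EA·EB, where EA and EB are the single-agent effects.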

[2] = tested on: SW48 (Colorectal Carcinoma)
Method in brief: as §1

[3] = tested on: SK-LMS-1 (Other Solid Carcinomas)
Method in brief: as §1

[4] = tested on: FU-OV-1 (Ovarian Carcinoma)
Method in brief: as §1

[5] = tested on: SLVL (B-Cell Non-Hodgkin's Lymphoma)
Method in brief: as §1

[6] = tested on: H4 (Low Grade Glioma)
Method in brief: as §1

[7] = tested on: Saos-2 (Osteosarcoma)
Method in brief: as §1

[8] = tested on: BICR78 (Oral Cavity Carcinoma)
Method in brief: as §1

[9] = tested on: EW-22 (Ewing's Sarcoma)
Method in brief: as §1

[10] = tested on: SK-MEL-1 (Melanoma)
Method in brief: as §1

[11] = tested on: WSU-DLCL2 (B-Cell Non-Hodgkin's Lymphoma)
Method in brief: as §1

[12] = tested on: MSTO-211H (Mesothelioma)
Method in brief: as §1

[13] = tested on: HCC38 (Breast Carcinoma)
Method in brief: as §1

[14] = tested on: NOMO-1 (Acute Myeloid Leukemia)
Method in brief: as §1

| SMILES | Bliss excess [1] | Bliss excess [2] | Bliss excess [3] | Bliss excess [4] | Bliss excess [5] | Bliss excess [6] | Bliss excess [7] | Bliss excess [8] | Bliss excess [9] | Bliss excess [10] | Bliss excess [11] | Bliss excess [12] | Bliss excess [13] | Bliss excess [14] |
| --- | --- | --- | --- | --- | --- | --- | --- | --- | --- | --- | --- | --- | --- | --- |
| CN(CCO)CC[C@H](CSc1ccccc1)Nc1ccc(S(=O)(=O)NC(=O)c2ccc(N3CCC([C@@H](O)c4ccccc4-c4ccc(Cl)cc4)CC3)cc2)cc1S(=O)(=O)C(F)(F)F [AZD4320] + Nc1ccn([C@@H]2O[C@H](CO)[C@@H](O)C2(F)F)c(=O)n1 [Gemcitabine] (first compound max 1 µM, 7x7, partner max 0.3 µM) | -0.0335 | 0.0089 | 0.0273 | -0.0498 | -0.0135 | 0.0194 | 0.121 | -0.0581 | 0.0287 | -0.0689 | 0.0032 | 0.0099 | -0.0171 | 0.0208 |
| Cc1c2c(nn1C)CSCc1cc(n(C)n1)CSc1cc(c3ccccc3c1)OCCCc1c(C(=O)O)n(C)c3c-2c(Cl)ccc13 [AZD5991] + CC(=O)O[C@H]1C(=O)[C@@]2(C)[C@H]([C@H](OC(=O)c3ccccc3)[C@]3(O)C[C@H](OC(=O)[C@H](O)[C@@H](NC(=O)c4ccccc4)c4ccccc4)C(C)=C1C3(C)C)[C@]1(OC(C)=O)CO[C@@H]1C[C@@H]2O [Paclitaxel] (first compound max 1 µM, 7x7, partner max 3 µM) | -0.0552 | -0.0091 | -0.0569 | 0.0262 | -0.0181 | 0.0003 | 0.0358 | -0.0412 | -0.0122 | -0.0045 | -0.0151 | 0.0035 | -0.0632 | -0.0215 |
| Cc1c2c(nn1C)CSCc1cc(n(C)n1)CSc1cc(c3ccccc3c1)OCCCc1c(C(=O)O)n(C)c3c-2c(Cl)ccc13 [AZD5991] + Nc1ccn([C@@H]2O[C@H](CO)[C@@H](O)C2(F)F)c(=O)n1 [Gemcitabine] (first compound max 1 µM, 7x7, partner max 0.3 µM) | 0.0121 | -0.0377 | -0.009 | -0.0321 | -0.014 | -0.0393 | 0.0374 | -0.0851 | -0.0071 | -0.0226 | 0.0128 | -0.0131 | -0.0432 | -0.0065 |
| C[C@@H]1COCCN1c1cc(C2([S@](C)(=N)=O)CC2)nc(-c2ccnc3[nH]ccc23)n1 [AZD6738] + Nc1ccn([C@@H]2O[C@H](CO)[C@@H](O)C2(F)F)c(=O)n1 [Gemcitabine] (first compound max 10 µM, 7x7, partner max 0.3 µM) | -0.0179 | -0.0329 | 0.0139 | -0.0143 | -0.0284 | 0.0184 | 0.0312 | 0.0298 | 0.0068 | 0.0174 | 0.0721 | 0.0098 | 0.0715 | 0.058 |
| Cc1cc2ncnn2cc1Nc1ncc2c(n1)n(C1CCOCC1)c(=O)n2C [AZD7648] + COc1cc([C@@H]2c3cc4c(cc3[C@@H](O[C@@H]3O[C@@H]5CO[C@@H](C)O[C@H]5[C@H](O)[C@H]3O)[C@H]3COC(=O)[C@H]23)OCO4)cc(OC)c1O [Etoposide] (first compound max 10 µM, 7x7, partner max 10 µM) | 0.0835 | 0.0487 | 0.172 | -0.0047 | 0.0824 | 0.0976 | 0.054 | 0.0789 | 0.112 | 0.0651 | 0.185 | 0.0624 | 0.0373 | 0.113 |
| C[C@@H](Nc1cc(F)cc(F)c1)c1cc(C(=O)N(C)C)cc2c(=O)cc(N3CCOCC3)oc12 [AZD8186] + C1CN(CCC1(C(=O)N[C@@H](CCO)C2=CC=C(C=C2)Cl)N)C3=NC=NC4=C3C=CN4 [AZD5363] (first compound max 10 µM, 7x7, partner max 10 µM) | -0.0143 | -0.024 | 0.0606 | -0.117 | 0.0553 | -0.0049 | 0.0104 | -0.0269 | -0.0197 | -0.039 | -0.0155 | 0.0272 | -0.0395 | 0.0385 |
| C[C@@H](Nc1cc(F)cc(F)c1)c1cc(C(=O)N(C)C)cc2c(=O)cc(N3CCOCC3)oc12 [AZD8186] + CC(=O)c1c(C)c2cnc(Nc3ccc(N4CCNCC4)cn3)nc2n(C2CCCC2)c1=O [Palbociclib] (first compound max 10 µM, 7x7, partner max 10 µM) | 0.113 | 0.0715 | 0.147 | -0.0311 | 0.0035 | 0.122 | -0.0181 | -0.0525 | 0.05 | 0.0098 | 0.0762 | 0.135 | -0.0466 | 0.0983 |
| C[C@@H](Oc1cc(-c2cnn(C3CCNCC3)c2)cnc1N)c1c(Cl)ccc(F)c1Cl [Crizotinib] + CC1=C(C(=CC=C1)Cl)NC(=O)C2=CN=C(S2)NC3=CC(=NC(=N3)C)N4CCN(CC4)CCO [Dasatinib] (first compound max 10 µM, 7x7, partner max 2 µM) | 0.0947 | -0.0118 | 0.153 | 0.0761 | 0.0167 | 0.0857 | 0.0807 | 0.0142 | -0.0466 | -0.0554 | 0.0824 | 0.0718 | 0.0255 | -0.025 |
